Assay results from patent publication US11247990B1, “Bicyclic fused pyridine compounds as inhibitors of TAM kinases” (ARRAY BIOPHARMA INC., priority 2017, dated 2022).

Tests used:
Conditions in all cases: averaged IC50
[1] = molecular target: His-tagged recombinant human AXL cytoplasmic domain (Homo sapiens (Human), UniProt P30530); experiment: AXL Enzyme Assay (LanthaScreen Eu Kinase Binding, TR-FRET)
Procedure: (§1) Compounds of Formula I were screened for their ability to inhibit AXL kinase using Invitrogen's LanthaScreen™ Eu Kinase Binding technology. […] After a 60-minute incubation at 22° C., the reaction was measured using a PerkinElmer EnVision multimode plate reader via TR-FRET dual wavelength detection, and the percent of control (POC) was calculated using a ratiometric emission factor. […] The POC values are fit to a 4 parameter logistic curve and the IC50 value is point where the curve crosses 50 POC.

[2] = molecular target: His-tagged recombinant human MER cytoplasmic domain (Homo sapiens (Human), UniProt Q12866); experiment: MER Enzyme Assay (LanthaScreen Eu Kinase Binding, TR-FRET)
Sequence of His-tagged recombinant human MER cytoplasmic domain (Q12866 527-999): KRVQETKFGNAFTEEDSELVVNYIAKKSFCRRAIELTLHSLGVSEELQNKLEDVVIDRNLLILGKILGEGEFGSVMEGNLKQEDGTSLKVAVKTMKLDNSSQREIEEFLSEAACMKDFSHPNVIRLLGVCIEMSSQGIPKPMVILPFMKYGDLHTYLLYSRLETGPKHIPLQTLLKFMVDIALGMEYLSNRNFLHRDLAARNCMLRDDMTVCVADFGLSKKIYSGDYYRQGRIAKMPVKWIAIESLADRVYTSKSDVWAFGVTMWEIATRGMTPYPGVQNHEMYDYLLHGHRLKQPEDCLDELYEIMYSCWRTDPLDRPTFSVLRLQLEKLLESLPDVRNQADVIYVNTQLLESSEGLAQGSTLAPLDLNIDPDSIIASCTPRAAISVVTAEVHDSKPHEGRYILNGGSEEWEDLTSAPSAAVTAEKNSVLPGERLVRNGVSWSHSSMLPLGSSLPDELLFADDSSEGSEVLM
Procedure: as §1, with “MER” for “AXL”

[3] = molecular target: GST-tagged recombinant human TYRO3 kinase domain (Homo sapiens (Human), UniProt Q06418); experiment: TYRO3 Enzyme Assay (LanthaScreen Eu Kinase Binding, TR-FRET)
Sequence of GST-tagged recombinant human TYRO3 kinase domain (Q06418 518-790): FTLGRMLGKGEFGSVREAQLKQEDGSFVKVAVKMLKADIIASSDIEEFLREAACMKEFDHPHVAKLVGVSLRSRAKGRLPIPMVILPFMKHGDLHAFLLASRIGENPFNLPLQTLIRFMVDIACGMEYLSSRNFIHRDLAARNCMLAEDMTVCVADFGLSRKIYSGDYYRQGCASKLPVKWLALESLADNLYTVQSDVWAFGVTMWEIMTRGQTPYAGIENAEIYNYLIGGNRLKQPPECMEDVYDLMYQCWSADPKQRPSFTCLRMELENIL
Procedure: as §1, with “TYRO3” for “AXL”, “(POC)” for “(POC) was”, “were” for “are”

Sequence of His-tagged recombinant human AXL cytoplasmic domain (P30530 473-894): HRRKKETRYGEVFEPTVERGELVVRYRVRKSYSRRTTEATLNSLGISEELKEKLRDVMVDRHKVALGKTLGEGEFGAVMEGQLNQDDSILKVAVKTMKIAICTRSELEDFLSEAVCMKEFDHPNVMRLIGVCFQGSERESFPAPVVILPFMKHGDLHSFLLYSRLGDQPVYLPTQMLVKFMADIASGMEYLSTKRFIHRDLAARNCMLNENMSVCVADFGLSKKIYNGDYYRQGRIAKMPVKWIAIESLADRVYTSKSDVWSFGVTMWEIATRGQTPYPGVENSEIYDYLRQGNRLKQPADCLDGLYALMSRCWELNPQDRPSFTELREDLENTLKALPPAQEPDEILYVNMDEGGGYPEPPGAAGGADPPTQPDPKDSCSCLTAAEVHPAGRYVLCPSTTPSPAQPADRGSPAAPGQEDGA

Row | IC50 [1] [nM] | IC50 [2] [nM] | IC50 [3] [nM] | Structure (SMILES)
1 | < 10 | < 10 | – | CNc1cc2c(cn1)c(-c1cnn(C)c1)nn2[C@H]1CC[C@@H](Oc2cccc(Cl)c2)CC1 [Example 361, 1-((1s,4s)-4-(3-chlorophenoxy)cyclohexyl)-N-methyl-3-(1-methyl-1H-pyrazol-4-yl)-1H-pyrazolo[4,3-c]pyridin-6-amine]
2 | < 10 | < 10 | – | CCNc1cc2c(cn1)c(N1CC[C@H](OC)C1)nn2[C@H]1CC[C@@H](Oc2nccc(C(F)(F)F)c2F)CC1 [Example 332, N-ethyl-1-((1s,4R)-4-((3-fluoro-4-(trifluoromethyl)pyridin-2-yl)oxy)cyclohexyl)-3-((S)-3-methoxypyrrolidin-1-yl)-1H-pyrazolo[4,3-c]pyridin-6-amine]
3 | < 10 | < 10 | – | CNc1cc2c(cn1)c(-c1cnn(CCN3CCOCC3)c1)nn2[C@H]1CC[C@@H](Oc2ccccc2F)CC1 [Example 397, 1-((1s,4s)-4-(2-fIuorophenoxy)cyclohexyl)-N-methyl-3-(1-(2-morpholinoethyl)-1H-pyrazol-4-yl)-1H-pyrazolo[4,3-c]pyridin-6-amine]
4 | < 10 | < 10 | – | CNc1cc2c(cn1)c(-c1cnn(C)c1)nn2[C@H]1CC[C@@H](Oc2cccnc2F)CC1 [Example 146, 1-((1s,4s)-4-((2-fluoropyridin-3-yl)oxy)cyclohexyl)-N-methyl-3-(1-methyl-1H-pyrazol-4-yl)-1H-pyrazolo[4,3-c]pyridin-6-amine]
5 | < 10 | < 10 | – | CNc1cc2c(cn1)c(-c1cnn(C)c1)nn2[C@H]1CC[C@@H](Oc2ncccc2F)CC1 [Example 122, 1-((1s,4s)-4-((3-fluoropyridin-2-yl)oxy)cyclohexyl)-N-methyl-3-(1-methyl-1H-pyrazol-4-yl)-1H-pyrazolo[4,3-c]pyridin-6-amine]
6 | 1000 to 10000 | – | – | Cn1cc(-c2nn([C@H]3CC[C@@H](Oc4ccccc4F)CC3)c3cc(NCCC4CC4)ncc23)cn1 [Example 402, N-(2-cyclopropylethyl)-1-((1s,4s)-4-(2-fluorophenoxy)cyclohexyl)-3-(1-methyl-1H-pyrazol-4-yl)-1H-pyrazolo[4,3-c]pyridin-6-amine]
7 | < 10 | < 10 | – | CCNc1cc2c(cn1)c(-c1cnc(=O)n(C)c1)nn2C1CCC(Oc2nccc(C(F)(F)F)c2F)CC1 (centres unmarked) [Example 256, 5-(6-(ethylamino)-1-((1s,4s)-4-((3-fluoro-4-(trifluoromethyl)pyridin-2-yl)oxy)cyclohexyl)-1H-pyrazolo[4,3-c]pyridin-3-yl)-1-methylpyrimidin-2(1H)-one]
8 | < 10 | < 10 | – | CNc1cc2c(cn1)c(-c1ccc(CN3CCN(C)CC3)cc1)nn2[C@H]1CC[C@@H](Oc2ccc(=O)n(C)n2)CC1 [Example 27, 2-methyl-6-(((1s,4s)-4-(6-(methylamino)-3-(4-((4-methylpiperazin-1-yl)methyl)phenyl)-1H-pyrazolo[4,3-c]pyridin-1-yl)cyclohexyl)oxy)pyridazin-3(2H)-one]
9 | < 10 | < 10 | – | CNc1cc2c(cn1)c(-c1cnn(C)c1)nn2[C@H]1CC[C@@H](Oc2cc(F)ccc2F)CC1 [Example 362, 1-((1s,4s)-4-(2,5-difluorophenoxy)cyclohexyl)-N-methyl-3-(1-methyl-1H-pyrazol-4-yl)-1H-pyrazolo[4,3-c]pyridin-6-amine]
10 | < 10 | < 10 | – | CNc1cc2c(cn1)c(-c1cnn(C)c1)nn2[C@H]1CC[C@@H](Oc2ncccc2C(F)(F)F)CC1 [Example 125, N-methyl-3-(1-methyl-1H-pyrazol-4-yl)-1-((1s,4s)-4-((3-(trifluoromethyl)pyridin-2-yl)oxy)cyclohexyl)-1H-pyrazolo[4,3-c]pyridin-6-amine]
11 | < 10 | < 10 | – | CCNc1cc2c(cn1)c(C1CCOCC1)nn2[C@H]1CC[C@@H](Oc2nccc(C(F)(F)F)c2F)CC1 [Example 317, N-ethyl-1-((1s,4s)-4-((3-fluoro-4-(trifluoromethyl)pyridin-2-yl)oxy)cyclohexyl)-3-(tetrahydro-2H-pyran-4-yl)-1H-pyrazolo[4,3-c]pyridin-6-amine]
12 | < 10 | < 10 | – | CNc1cc2c(cn1)c(-c1cnn(C)c1)nn2[C@H]1CC[C@@H](Oc2ccc(F)cc2F)CC1 [Example 358, 1-((1s,4s)-4-(2,4-difluorophenoxy)cyclohexyl)-N-methyl-3-(1-methyl-1H-pyrazol-4-yl)-1H-pyrazolo[4,3-c]pyridin-6-amine]
13 | < 10 | – | – | CCn1nc(O[C@H]2CC[C@@H](n3nc(-c4ccc(CN5CCN(C)CC5)cc4)c4cnc(NC)cc43)CC2)ccc1=O [Example 79, 2-ethyl-6-(((1s,4s)-4-(6-(methylamino)-3-(4-((4-methylpiperazin-1-yl)methyl)phenyl)-1H-pyrazolo[4,3-c]pyridin-1-yl)cyclohexyl)oxy)pyridazin-3(2H)-one]
14 | < 10 | < 10 | – | CNc1cc2c(cn1)c(-c1cnn(C)c1)nn2[C@H]1CC[C@@H](Oc2ccccc2C#N)CC1 [Example 363, 2-(((1s,4s)-4-(3-(1-methyl-1H-pyrazol-4-yl)-6-(methylamino)-1H-pyrazolo[4,3-c]pyridin-1-yl)cyclohexyl)oxy)benzonitrile]
15 | < 10 | < 10 | – | CNc1cc2c(cn1)c(-c1cnn(C)c1)nn2[C@H]1CC[C@@H](Oc2cc(C(F)(F)F)ccn2)CC1 [Example 170, N-methyl-3-(1-methyl-1H-pyrazol-4-yl)-1-((1s,4s)-4-((4-(trifluoromethyl)pyridin-2-yl)oxy)cyclohexyl)-1H-pyrazolo[4,3-c]pyridin-6-amine]
16 | < 10 | – | – | CCNc1cc2c(cn1)c(-c1cnn(C)c1)nn2[C@H]1CC[C@@H](Oc2ccc(C(=O)NC)cc2F)CC1 [Example 460, 4-(((1s,45)-4-(6-(ethylamino)-3-(1-methyl-1H-pyrazol-4-yl)-1H-pyrazolo[4,3-c]pyridin-1-yl)cyclohexyl)oxy)-3-fluoro-N-methylbenzamide]
17 | 1000 to 10000 | – | – | Cn1cc(-c2nn([C@H]3CC[C@@H](Oc4ncccc4C(F)(F)F)CC3)c3cc(Nc4ccccc4)ncc23)cn1 [Example 306, 3-(1-methyl-1H-pyrazol-4-yl)-N-phenyl-1-((1s,4s)-4-((3-(trifluoromethyl)pyridin-2-yl)oxy)cyclohexyl)-1H-pyrazolo[4,3-c]pyridin-6-amine]
18 | – | – | 1000 to 10000 | CNc1cc2c(cn1)c(-c1cnn(C)c1)nn2[C@H]1CC[C@@H](Oc2ccc(C(=O)NCCOC)cc2)CC1 [Example 459, N-(2-methoxyethyl)-4-(((1s,4s)-4-(3-(1-methyl-1H-pyrazol-4-yl)-6-(methylamino)-1H-pyrazolo[4,3-c]pyridin-1-yl)cyclohexyl)oxy)benzamide]
19 | – | – | 1000 to 10000 | CCNc1cc2c(cn1)c(-c1cnn(C)c1)nn2[C@H]1CC[C@@H](Oc2cnn(C)c2C)CC1 [Example 226, 1-((1s,4s)-4-((1,5-dimethyl-1H-pyrazol-4-yl)oxy)cyclohexyl)-N-ethyl-3-(1-methyl-1H-pyrazol-4-yl)-1H-pyrazolo[4,3-c]pyridin-6-amine]
20 | – | – | < 10 | Cn1cc(-c2nn([C@H]3CC[C@@H](Oc4cccnc4C(F)(F)F)CC3)c3cc(Nc4ccccc4)ncc23)cn1 [Example 304, 3-(1-methyl-1H-pyrazol-4-yl)-N-phenyl-1-((1s,4s)-4-((2-(trifluoromethyl)pyridin-3-yl)oxy)cyclohexyl)-1H-pyrazolo[4,3-c]pyridin-6-]
21 | – | – | 1000 to 10000 | CNc1cc2c(cn1)c(-c1cnn(C)c1)nn2[C@H]1CC[C@@H](Oc2ccc(C#N)cn2)CC1 [Example 127, 6-(((1s,4s)-4-(3-(1-methyl-1H-pyrazol-4-yl)-6-(methylamino)-1H-pyrazolo[4,3-c]pyridin-1-yl)cyclohexyl)oxy)nicotinonitrile]
22 | – | – | 1000 to 10000 | CNc1cc2c(cn1)c(-c1cnn(C)c1)nn2[C@H]1CC[C@@H](Oc2cccc(C(=O)NC(C)C)c2)CC1 [Example 455, N-isopropyl-3-(((1s,4s)-4-(3-(1-methyl-1H-pyrazol-4-yl)-6-(methylamino)-1H-pyrazolo[4,3-c]pyridin-1-yl)cyclohexyl)oxy)benzamide]
23 | < 10 | – | – | CNc1cc2c(cn1)c(-c1cnn(C)c1)nn2[C@H]1CC[C@@H](Oc2ccc(F)cc2CN(C)C)CC1 [Example 370, 1-((1s,4s)-4-(2-((dimethylamino)methyl)-4-fluorophenoxy)cyclohexyl)-N-methyl-3-(1-methyl-1H-pyrazol-4-yl)-1H-pyrazolo[4,3-c]pyridin-6-amine]
24 | 1000 to 10000 | – | – | Cn1cc(-c2nn([C@H]3CC[C@@H](Oc4cccc(F)c4F)CC3)c3cc(Nc4ccccc4)ncc23)cn1 [Example 486, 1-((1s,4s)-4-(2,3-difluorophenoxy)cyclohexyl)-3-(1-methyl-1H-pyrazol-4-yl)-N-phenyl-1H-pyrazolo[4,3-c]pyridin-6-amine]
25 | – | – | 1000 to 10000 | CNc1cc2c(cn1)c(-c1cnn(C)c1)nn2[C@H]1CC[C@@H](Oc2cccc(C(=O)NC(C)C)c2F)CC1 [Example 466, 2-fluoro-N-isopropyl-3-(((1s,4s)-4-(3-(1-methyl-1H-pyrazol-4-yl)-6-(methylamino)-1H-pyrazolo[4,3-c]pyridin-1-yl)cyclohexyl)oxy)benzamide]
